Experimental data reported in BindingDB's records for doi:10.7270/Q2R78CMH (Sanford-Burnham Center for Chemical Genomics, 2008).

The compounds below were run against T1, Bcl-2-like protein 10 (Homo sapiens, UniProt Q9HD36) (assay: EC50 profiling of BCL2L10 inhibition in a biochemical TR3-derived FP format (AID 1243)).
T1 sequence (Q9HD36 whole entry): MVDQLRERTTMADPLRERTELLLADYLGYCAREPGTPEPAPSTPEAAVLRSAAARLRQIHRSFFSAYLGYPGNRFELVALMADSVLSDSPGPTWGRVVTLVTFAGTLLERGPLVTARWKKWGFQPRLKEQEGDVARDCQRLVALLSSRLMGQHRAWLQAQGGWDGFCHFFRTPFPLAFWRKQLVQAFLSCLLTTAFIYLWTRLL

Row | EC50 [µM] | SMILES
1 | 1.65 | C=c1c(C#N)c2[nH]c(N)c(C#N)c(C)c-2c1=Cc1ccc(-c2ccc(C(=O)O)c(Cl)c2)o1
2 | 9.64 | O=C(O)c1cccc(-c2ccc(CN=Nc3ccc([N+](=O)[O-])cn3)o2)c1
3 | 14.2 | Clc1ccc(C2CC(c3ccccc3)=Nc3ncnn32)cc1 (stereo unspecified) [7-(4-chlorophenyl)-5-phenyl-1,7-dihydro-[1,2,4]triazolo[1,5-a]pyrimidine]
4 | 6.24 | COc1ccccc1NC(=O)C1=C(C)N=C(SCC(=O)c2ccc(Br)cc2)C(C#N)C1c1ccco1 (stereo unspecified) [BIM-0025022.P001]
5 | 23.8 | O=C1c2ccccc2C(O)C12N=Nc1n[nH]c(=S)n1N2 (stereo unspecified) [BIM-0026580.P001]
6 | 5.7 | O=C1C=CC(=O)C(C(C=NCc2ccccc2)[N+](=O)[O-])=C1 (stereo unspecified) [BIM-0048185.P001]
